Experiments:
[1] = biological target: BRD4 (Homo sapiens (Human), UniProt O60885); experiment: TR-FRET in-vitro binding assay for BRD4; conditions: 45 nM His-Brd4(44-477), acetyl-histone H4 (AcK 5, 8, 12, 16) peptide
In short: (§1)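 Incubation at 30° C lasted 35 min, followed by TR-FRET measurement; each compound was tested as 8 single-point concentrations.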

[2] = biological target: BRD2 (Homo sapiens (Human), UniProt P25440); experiment: TR-FRET in-vitro binding assay for BRD2; conditions: 45 nM His-Brd2(60-472), acetyl-histone H4 (AcK 5, 8, 12, 16) peptide
Chain of BRD2 (P25440 60-472): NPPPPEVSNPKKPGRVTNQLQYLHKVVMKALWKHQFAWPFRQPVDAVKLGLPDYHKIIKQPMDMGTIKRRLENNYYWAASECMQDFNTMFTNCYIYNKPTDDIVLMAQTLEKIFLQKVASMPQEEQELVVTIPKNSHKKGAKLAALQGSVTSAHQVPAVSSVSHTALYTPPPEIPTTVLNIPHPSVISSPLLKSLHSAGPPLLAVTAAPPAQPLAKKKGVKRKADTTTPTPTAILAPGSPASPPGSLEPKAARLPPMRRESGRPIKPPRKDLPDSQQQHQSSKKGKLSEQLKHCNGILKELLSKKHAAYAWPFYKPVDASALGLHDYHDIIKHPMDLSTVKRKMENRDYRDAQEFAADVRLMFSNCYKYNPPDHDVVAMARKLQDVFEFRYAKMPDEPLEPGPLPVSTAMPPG
In short: as §1

[3] = biological target: CREBBP (Homo sapiens (Human), UniProt Q92793); experiment: AlphaScreen in-vitro binding assay for CREBBP; conditions: 324 nM His-CREBBP (1081-1197), acetyl-histone H4 (AcK 5, 8, 12) peptide
Chain of CREBBP (Q92793 1081-1197): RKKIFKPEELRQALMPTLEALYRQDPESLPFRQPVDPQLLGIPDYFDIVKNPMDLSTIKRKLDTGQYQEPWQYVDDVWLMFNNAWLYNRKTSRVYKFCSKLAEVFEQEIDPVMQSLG
In short: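 IC50 values were derived by non-linear regression of percent inhibition across 8 compound concentrations. Protein was His-tagged CREBBP bromodomain (1081-1197), peptide acetyl-histone H4 (AcK 5, 8, 12), in HEPES pH 7.5 buffer. Read-out was AlphaScreen with Ni-chelate acceptor and streptavidin donor beads, 35 min at 30° C then 60 min at RT.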

Cc1cn(C)c2c1C(=O)N(c1cc(C)c3nnc(C)n3c1)C2c1ccc(Cl)cc1 (centres unmarked) [Example 33, 6-(4-chlorophenyl)-5-(3,8-dimethyl-[1,2,4]triazolo[4,3-a]pyridin-6-yl)-1,3-di methyl-5,6-dihydropyrrolo[3,4-b]pyrrol-4(1H)-one]
IC50 [1]: 0.031 µM | IC50 [2]: 0.036 µM | IC50 [3]: 10.1 µM

Cc1cn(C)c2c1C(=O)N(c1cc(C)c(=O)n(C)c1)C2c1ccc(Cl)cc1 (centres unmarked) [Example 34, 6-(4-chlorophenyl)-5-(1,5-dimethyl-6-oxo-1,6-dihydropyridin-3-yl)-1,3-dimethyl-5,6-dihydropyrrolo[3,4-b]pyrrol-4(1H)-one]
IC50 [1]: 0.043 µM | IC50 [2]: 0.037 µM | IC50 [3]: 1.9 µM

COc1ncc(-c2cc3c(n2C)C(c2ccc(Cl)cc2)N(c2cc(Cl)c(=O)n(C)c2)C3=O)c(OC)n1 (centres unmarked) [Example 38, 5-(5-chloro-1-methyl-6-oxo-1,6-dihydropyridin-3-yl)-6-(4-chlorophenyl)-2-(2,4-dimethoxypyrimidin-5-yl)-1-methyl-5,6-dihydropyrrolo[3,4-b]pyrrol-4(1H)-one]
IC50 [1]: 0.047 µM | IC50 [2]: 0.323 µM | IC50 [3]: 0.205 µM

Cn1c(-c2ccc(=O)n(C)c2)cc2c1C(c1ccc(Cl)cc1)N(c1cc(Cl)c(=O)n(C)c1)C2=O (centres unmarked) [Example 42, 5-(5-chloro-1-methyl-6-oxo-1,6-dihydropyridin-3-yl)-6-(4-chlorophenyl)-1-methyl-2-(1-methyl-6-oxo-1,6-dihydropyridin-3-yl)-5,6-dihydropyrrolo[3,4-b]pyrrol-4(1H)-one]
IC50 [1]: 0.27 µM | IC50 [3]: 0.31 µM

Cc1cc(N2C(=O)c3cc(-c4ccn(C)c(=O)c4)n(C)c3C2c2ccc(Cl)cc2)cn(C)c1=O (centres unmarked) [Example 45, 6-(4-chlorophenyl)-5-(1,5-dimethyl-6-oxo-1,6-dihydropyridin-3-yl)-1-methyl-2-(1-methyl-2-oxo-1,2-dihydropyridin-4-yl)-5,6-dihydropyrrolo[3,4-b]pyrrol-4(1H)-one]
IC50 [1]: 0.0245 µM | IC50 [2]: 0.022 µM | IC50 [3]: 0.37 µM

COc1ncc(-c2cc3c(n2C)[C@@H](c2ccc(Cl)cc2)N(c2cc(C)c(=O)n(C)c2)C3=O)c(OC)n1 [Example 54, (R)-6-(4-chlorophenyl)-2-(2,4-dimethoxypyrimidin-5-yl)-5-(1,5-dimethyl-6-oxo-1,6-dihydropyridin-3-yl)-1-methyl-5,6-dihydropyrrolo[3,4-b]pyrrol-4(1H)-one]
IC50 [1]: 0.045 µM | IC50 [2]: 0.027 µM | IC50 [3]: 0.091 µM

COc1ncc(-c2cc3c(n2C)[C@@H](c2ccc(Cl)cc2)N(c2cc(C)c(=O)n(C)c2)C3=O)cn1 [Example 56, (R)-6-(4-chlorophenyl)-5-(1,5-dimethyl-6-oxo-1,6-dihydropyridin-3-yl)-2-(2-methoxypyrimidin-5-yl)-1-methyl-5,6-dihydropyrrolo[3,4-b]pyrrol-4(1H)-one]
IC50 [1]: 0.0283 µM | IC50 [2]: 0.03 µM | IC50 [3]: 0.13 µM

Cc1cc2c(n1C)[C@@H](c1ccc(Cl)cc1)N(c1cc(Cl)c(=O)n(C)c1)C2=O [Example 75, (R)-5-(5-chloro-1-methyl-6-oxo-1,6-dihydropyridin-3-yl)-6-(4-chlorophenyl)-1,2-dimethyl-5,6-dihydropyrrolo[3,4-b]pyrrol-4(1H)-one]
IC50 [1]: 0.0853 µM | IC50 [2]: 0.135 µM | IC50 [3]: 0.79 µM

Cn1ccc2c1[C@@H](c1ccc(Cl)cc1)N(c1cc(Cl)c(=O)n(C)c1)C2=O [Example 77, (R)-5-(5-chloro-1-methyl-6-oxo-1,6-dihydropyridin-3-yl)-6-(4-chlorophenyl)-1-methyl-5,6-dihydropyrrolo[3,4-b]pyrrol-4(1H)-one]
IC50 [1]: 0.109 µM | IC50 [2]: 0.199 µM | IC50 [3]: 1.3 µM

From patent US9550796B2, “Pyrrolopyrrolone derivatives and their use as BET inhibitors” (NOVARTIS AG, priority 2013, dated 2017)
